These results are taken from patent publication US20050074879A1, “Antisense oligonucleotide modulation of STAT3 expression” (priority 2000, published 2005).

For this data set, the system named is Human STAT3 mRNA. Briefly: Inhibition of human STAT3 mRNA levels in A549 cells, 75 nM, real-time PCR (Table 13). The settings on record: 75 nM oligonucleotide with LIPOFECTIN, real-time PCR PPS 199, percent inhibition relative to untreated control cells, average of 2 experiments. Type of data set: cell-based. The method, boiled down: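 A549 cells at 65–75% confluency were transfected in duplicate with 75 nM oligonucleotide plus […] Lipofectin for 4–7 h at 37° C and harvested 16–24 h later. STAT3 mRNA was quantified by real-time RT-PCR with primer-probe set PPS 199 and normalized to RiboGreen total RNA. Inhibition is relative to untreated controls.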
On the technique in general: In qPCR the cycle at which signal appears reflects the starting amount.

Oligonucleotides are written 5' to 3', each unit as a sugar letter and its base; * is a phosphorothioate linkage, no mark a phosphodiester; rarer units and linkages stand in square brackets, end groups in braces. Plain capitals give the bases only. e = 2'-O-(2-methoxyethyl) (MOE); [5mC] = 5-methylcytosine; d = 2'-deoxy (DNA)

For “337348 (antisense eT*e[5mC]*e[5mC]*eG*eA*dA*dT*dG*d[5mC]*d[5mC]*dT*d[5mC]*d[5mC]*dT*d[5mC]*e[5mC]*eT*eT*eG*eG) [compound 337348]”, the “% Inhib (inhibition of human STAT 3 mRNA levels)” value (“% Inhib” for short) came out at 92%.

Consider “337332 (antisense eG*eA*eA*eG*e[5mC]*d[5mC]*d[5mC]*dT*dT*dG*d[5mC]*d[5mC]*dA*dG*d[5mC]*e[5mC]*eA*eT*eG*eT) [compound 337332]”, for which the “% Inhib” value turned out to be 91%.

For the substance “337333 (antisense eA*eA*eG*eG*eA*dG*dA*dA*dG*d[5mC]*d[5mC]*d[5mC]*dT*dT*dG*e[5mC]*e[5mC]*eA*eG*e[5mC]) [compound 337333]”, the “% Inhib” value was 90%.
